This is an account of results in PMC12193109, “Bioprospecting for Anti-Kinetoplastid Drug Discovery from Aloysia citrodora Essential Oil” (International Journal of Molecular Sciences, 2025).

Like-named read-outs stand apart in the source and are kept apart here.

In general, CC50 refers to the concentration at which the toxic effect on the cells reaches its halfway point. A word on the IC50: it is the midpoint of a concentration-inhibition curve.

The nature of data set [1]: Cytotoxicity on murine macrophages. The class given is cell-based. Conditions: mouse, ± SD. As for the experimental part: (§1) The cytotoxicity effect of the tested compounds was conducted using macrophages of the murine cell line J774.A1 (American Type Culture Collection #TIB-67) as previously described. The cells were maintained in the DMEM medium at 37 °C in a 5% CO2 humidified incubator. All the plates containing alamarBlue® were analyzed using the plate reader EnSpire Multimode Plate Reader® at excitation and emission wavelengths of 570 and 585 nm, respectively (PerkinElmer, ThermoFisher Scientific, Madrid, Spain). The IC50 (concentrations able to inhibit 50% of parasites), IC90 (concentrations able to inhibit 90% of parasites), and CC50 (concentration able to inhibit 50% of murine macrophages) values were determined for each compound by nonlinear regression using the GraphPad Prism 9 software.

Data set [2] can be described thus: In vitro leishmanicidal activity on L. amazonensis promastigotes (Alamar Blue). It counts as cell-based, Leishmania amazonensis. As to conditions: mouse; CC50 J774.A1 macrophages / IC50 L. amazonensis promastigotes; read-out: Selectivity SI (CC50/IC50), promastigotes. As for the experimental part: (§2) The assay was conducted using the Alamar Blue® method as previously described. […] In 96-well microtiter plates (Corning^TM, Corning, NY, USA), serial dilutions of the citral derivative were first prepared, and later 10^6 parasites/mL were added into each well. Subsequently, 10% Alamar Blue® was added to the entire plate. The plates were incubated for 72 h at 26 °C. The cytotoxicity effect of the tested compounds was conducted using macrophages of the murine cell line J774.A1 (American Type Culture Collection #TIB-67) as previously described. The cells were maintained in the DMEM medium at 37 °C in a 5% CO2 humidified incubator. […] The IC50 (concentrations able to inhibit 50% of parasites), IC90 (concentrations able to inhibit 90% of parasites), and CC50 (concentration able to inhibit 50% of murine macrophages) values were determined for each compound by nonlinear regression using the GraphPad Prism 9 software.
On the technique in general: Alamar Blue is a resazurin reagent that responds to reducing activity.

Data set [3] concerns L. amazonensis promastigotes. Described as above. As to conditions: 72 h, promastigotes, 72 h, ± SD. The class given is cell-based, Leishmania amazonensis. As for the experimental part: as §2
The subject of data set [4] is L. amazonensis. Put plainly: ATP level (CellTiter-Glo luminescence). The class given is cell-based, Leishmania amazonensis. As to conditions: IC90, 24 h. As for the experimental part: (§3) The effect of compound 9 to modulate cell features was studied in the L. amazonensis parasites using various specific commercial kits. Parasite cells were incubated with the compound at the previously calculated IC90 for 24 h. Subsequently, cells were washed and submitted to different treatments as mentioned by the manufacturer’s instructions. In all the assays, the plate reader EnSpire Multimode Plate Reader® (PerkinElmer, ThermoFisher Scientific, Madrid, Spain) and/or the image base system fluorescence microscope EVOS M5000 (version 1.5.1500.493) were used for fluorescence intensity quantification. For each protocol, images of representative population cells were obtained using the inverted confocal microscope Leica DMI 4000 B with the Leica Application Suite X 3.5.5.19976 software and Leica HC PL APO 63x/1.40 OIL CS2 Objective (Barcelona, Spain).
The adenosine triphosphate (ATP) level was measured using the CellTiter-Glo Luminescent Cell Viability Assay (Promega, Madrid, Spain). The mitochondrion in which most cellular oxidations occur is considered the main source of cell ATP, and any damage and/or malfunction of this organelle generate the depletion of ATP levels.
Background: In ATP-based viability assays light output follows the ATP content of the culture.

In data set [5] the test system is L. amazonensis promastigotes. Put plainly: Mitochondrial membrane potential (JC-1 staining). It counts as cell-based, Leishmania amazonensis. Conditions: IC90, 24 h, JC-1 red/green fluorescence ratio. As for the experimental part:
as §3, with “For each protocol, images of representative population cells were obtained using the inverted confocal microscope Leica DMI 4000 B with the Leica Application Suite X 3.5.5.19976 software and Leica HC PL APO 63x/1.40 OIL CS2 Objective (Barcelona, Spain).” left out
To evaluate the damage caused by the tested compound on mitochondrial function, mitochondrial membrane potential, the adenosine triphosphate (ATP) level, and reactive oxygen species (ROS) were measured as follows: The evaluation of the mitochondrial membrane potential was carried out using the JC-1 assay. JC-1 is a specific stain of the mitochondria which fluorescence emission depends on the mitochondrial membrane potential. In healthy mitochondria, JC-1 agglomerates and emits red fluorescence, while unhealthy ones remain as a monomer and emit green fluorescence. […]

The nature of data set [6]: In vitro leishmanicidal activity on L. amazonensis intracellular amastigotes. It counts as cell-based, Leishmania amazonensis. Conditions: mouse; CC50 J774.A1 macrophages / IC50 L. amazonensis amastigotes; read-out: Selectivity SI (CC50/IC50), amastigotes.
Data set [7] has as its system L. amazonensis intracellular amastigotes. The data set is described as above. The class given is cell-based, Leishmania amazonensis. As to conditions: Leishmania amazonensis; intracellular amastigotes; ± SD.
Data set [8] has as its system L. amazonensis. Put plainly: Plasma membrane permeability (SYTOX Green). It counts as cell-based, Leishmania amazonensis. Conditions: IC90, 24 h. As for the experimental part: as §3
SYTOX^TM Green (Life Technologies, Madrid, Spain), a cell-impermeable DNA-binding stain, was used to evaluate membrane permeability and integrity. The assay was conducted as detailed in the manufacture instructions and as previously described.

For another data set, the system named is T. cruzi epimastigotes. Put plainly: In vitro trypanocidal activity on T. cruzi epimastigotes (alamarBlue). Conditions: 72 h; for IC50: Trypanosoma cruzi. The class given is cell-based, Trypanosoma cruzi. As for the experimental part: In a 96-well plate, a serial dilution of the tested compounds was performed in the liver infusion tryptose medium supplemented with 10% heat-inactivated fetal bovine serum. Later, 100 µL of 5 × 10^5 cells/mL of epimastigotes was added to each well. Afterwards, 20 µL of alamarBlue® was added to each well, and the plate was maintained at 26 °C for 72 h.
as §1

Data set [9] deals with L. amazonensis promastigotes. Put plainly: Double stain assay (Hoechst 33342/PI) for programmed cell death. It counts as cell-based, Leishmania amazonensis. As to conditions: IC90, 24 h. As for the experimental part:
as §3
To identify the type of cell death occurring in treated Leishmania amazonensis, the Hoechst 33342 and propidium iodide (PI) dyes were employed. […] Post-treatment, three distinct staining patterns could be observed: blue fluorescence indicating cells […]; violet coloration resulting from the merge of blue and red fluorescence, representing late apoptotic cells; and red fluorescence corresponding to dead cells.

Data set [10] has as its system L. amazonensis. Put plainly: Intracellular ROS (CellROX Deep Red). The class given is cell-based, Leishmania amazonensis. As to conditions: IC90, 24 h. As for the experimental part:
as §3, with “Parasite” for “The effect of compound 9 to modulate cell features was studied in the L. amazonensis parasites using various specific commercial kits. Parasite”, “Spain). The measure of reactive oxygen species (ROS) was measured after treatment for 24 h using the CellROX® Deep Red fluorescent probe (Invitrogen, Madrid, Spain). The mitochondrion constitute an essential organelle to neutralize the reactive oxygen species; the malfunction of this organelle would generate an imbalance between the antioxidants and the reactive oxygen.” for “Spain).”

Setting [11] is: Leishmania amazonensis, read-out: L. amazonensis Promastigotes IC50.
The mark [12] stands for this setting: Leishmania amazonensis, Alamar Blue, read-out: L. amazonensis IC50.

In turn, `CC(C)=CCC/C(C)=C/C=NNC(N)=O` [Compound 7, citral semicarbazone] displayed a CC50 in [1] (J774.A1 macrophage cell line) of over 300 µM. For the same compound, the selectivity ratio in data set [2] was found to be 9.29. In [3] (setting [11]), the IC50 is 43.8 ± 12.1 µM.

In the case of `CCCC(=O)ON=C/C=C(\C)CCC=C(C)C` [Compound 4, citral oxime butyrate], the IC50 in [3] (setting [11]) was over 100 µM.

On to `CCCCCCCCCCCCCCCCOP(=O)([O-])OCC[N+](C)(C)C` [Miltefosine, reference compound], for which the “Reduction in ATP production in comparison to the negative controls” value in the data set with L. amazonensis [4] came out at 74.11%. Also, in data set [5], the “Decrease of mitochondrial membrane potential in comparison with untreated cells” value was 75%. Also, the selectivity ratio was found to be 23.1 in [6] and 11.2 in data set [2]. The IC50 worked out at 3.12 ± 0.3 µM in data set [7], 2.64 ± 0.09 µg/mL in data set [3] (setting [12]) and 2.64 µM in [3] (read-out: L. amazonensis Promastigotes IC50). In addition, the CC50 in [1] (J774.A1 macrophage cell line) is 72.2 ± 8.85 µM. Also, in the data set with L. amazonensis [8], the “Effect on plasma membrane permeability (in words)” value was “greater degree of damage to membrane permeability compared to compound 9”.

For the compound `CC(C)=CCC/C(C)=C/C=NOC(=O)c1ccc([N+](=O)[O-])cc1` [Compound 6, citral oxime 4-nitrobenzoate], the CC50 in data set [1] (J774.A1 macrophage cell line) is over 300 µM. Also, the selectivity ratio in data set [2] turned out to be 9.25. The IC50 in data set [3] (setting [11]) was found to be 34.2 ± 14.4 µM.

Regarding `O=C(Cn1ccnc1[N+](=O)[O-])NCc1ccccc1` [Benznidazole, reference compound], the IC50 in the data set with T. cruzi epimastigotes stood at 1.81 µM; in the data set with T. cruzi epimastigotes (alamarBlue, ± SD), 1.81 ± 0.5 µg/mL.

As for `CC(C)=CCCC(C)=CC=O` [Compound 1, 3,7-dimethyl-2,6-octadienal], the CC50 in data set [1] (J774.A1 macrophage cell line) was over 300 µM. Besides, the selectivity ratio in [2] was 6.97. Besides, the IC50 stood at 10.9 µg/mL in [3] (setting [12]); 12.9 µM in the data set on T. cruzi epimastigotes; 24.8 µg/mL in the data set with T. cruzi epimastigotes (alamarBlue, ± SD). The “L. amazonensis IC50” value in data set [3] (Alamar Blue, listed as Citral (1)) was 8.47 ± 4.59 µg/mL. In addition, the “T. cruzi IC50” value in the data set with T. cruzi epimastigotes (alamarBlue, ± SD, listed as Citral (1)) came out at 12.90 ± 1.92 µg/mL.

As for `CC(C)=CCCC(C)=CC=NNc1ccc([N+](=O)[O-])cc1[N+](=O)[O-]` [Compound 9, citral 2,4-dinitrophenylhydrazone], the “Reduction in ATP production in comparison to the negative controls” value in the data set with L. amazonensis [4] worked out at 46.35%. In data set [5], the “Decrease of mitochondrial membrane potential in comparison with untreated cells” value worked out at 50%. The selectivity ratio in data set [6] was 1.47; in data set [2], 2.98. For the same compound, the values for the IC50 in [7] and in data set [3] (setting [11]) were 21.4 ± 0.65 µM and 10.6 ± 4.78 µM, respectively. The “Type of cell death (in words)” value in data set [9] is reported as “induction of mitochondrial-dependent apoptosis”. Besides, in data set [1] (murine macrophages J774.A1), the CC50 worked out at 31.6 ± 1.96 µM. In addition, the “Effect on plasma membrane permeability (in words)” value in the data set with L. amazonensis [8] is “can affect the cell’s membrane permeability”. Moreover, in the data set with L. amazonensis [10], the “Intracellular ROS level (in words)” value is “significant increase in emitted fluorescence”.

In data set [1] (J774.A1 macrophage cell line), `CC(C)=CCC/C(C)=C/C=NOC(=O)c1ccccc1` [Compound 5, citral oxime benzoate] displayed a CC50 of over 300 µM. Further, in data set [2], the selectivity ratio turned out to be 10.4. In [3] (setting [11]), the IC50 came to 29.3 ± 8.07 µM.

`CC(=O)ON=C/C=C(\C)CCC=C(C)C` [Compound 3, citral oxime acetate]: in [3] (setting [11]), the IC50 was over 100 µM.

Consider `CC(C)=CCC/C(C)=C/C=NO` [Compound 2, citral oxime], for which the selectivity ratio in [6] is 9.39; in [2], 12.6. Moreover, the IC50 in data set [7] is 56.9 ± 19.1 µM; in [3] (setting [11]) it was 40.8 ± 19.4 µM. The CC50 in [1] (J774.A1 macrophage cell line) was over 300 µM.
